Results on 3 compounds are retold here after ChEMBL document CHEMBL4385629, “Evaluation of quinoxaline compounds as ligands of a site adjacent to S2 (AS2) of cruzain” (Bioorg Med Chem Lett, 2019).

Each structure is given as a SMILES string. Calls of active or inactive are those of the source. The calls are words filed in the database; no cut-off is given here.

The target of the first assay is Cruzipain (Trypanosoma cruzi) (UniProt P25779). Kind of assay: Inhibition of Trypanosoma cruzi cruzain assessed as reduction in 7-amino-4-methylcoumarin production using Z-FR-AMC as substrate and measured up to 60 mins by fluorescence based method.
Cruzipain (Trypanosoma cruzi), sequence (P25779 123-467 limits assumed): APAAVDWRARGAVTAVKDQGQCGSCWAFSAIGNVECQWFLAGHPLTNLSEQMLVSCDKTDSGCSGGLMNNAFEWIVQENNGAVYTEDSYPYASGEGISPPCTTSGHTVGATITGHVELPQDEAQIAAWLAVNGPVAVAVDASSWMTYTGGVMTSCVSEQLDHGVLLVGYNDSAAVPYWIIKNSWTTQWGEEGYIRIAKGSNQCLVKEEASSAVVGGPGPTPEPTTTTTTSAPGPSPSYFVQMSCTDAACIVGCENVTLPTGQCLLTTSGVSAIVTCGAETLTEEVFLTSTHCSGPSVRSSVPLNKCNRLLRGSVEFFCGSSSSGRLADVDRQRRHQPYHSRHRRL
On to `O=C1CNc2ccccc2N1`, for which the inhibition entry is “inactive”.

For the compound `O=C(O)CCc1nc2ccccc2[nH]c1=O`, the inhibition entry is “inactive”.

Turning to `Oc1nc2ccccc2nc1O`, the inhibition entry was “inactive”.

The target is the same in the next assay. Kind of assay: Activation of Trypanosoma cruzi cruzain assessed as increase in enzyme activity using Z-FR-AMC as substrate at 0.1 mM incubated for 15 mins in dark and measured at 5 mins interval for 60 mins by fluorescence based method relative to control.
As for `O=C1CNc2ccccc2N1`, the fold change (FC) is 15.

`O=C(O)CCc1nc2ccccc2[nH]c1=O`: the fold change (FC) is 10.

For the compound `Oc1nc2ccccc2nc1O`, the fold change (FC) was found to be 3.
